Measurements: patent US20050277586A1, “Peptide chemically modified with polyethylene glycol” (priority 2002, published 2005)
No end group written: not given here.

Experiments:
[1] = Affinity for phosphatidyl serine by surface plasmon resonance (Biacore 2000); assay type: binding; settings: in the presence of 0.1 mg/mL BSA
Experimental: The specific affinity of the peptide for phosphatidyl serine was evaluated by means of surface plasmon resonance (SPR) using Biacore 2000 (manufactured by Biacore). To be more specific, phosphatidyl choline was immobilized on flow cell 1, and 50% of phosphatidyl serine and 50% of phosphatidyl choline were immobilized on flow cell 2 of HPA chip (manufactured by Biacore), and ability of the peptide to bind to the phospholipid was evaluated in the presence of 0.1 mg/mL BSA to thereby evaluate the affinity.

[2] = system: Vero cell, T24 cell, A549 cell; assay: Nucleic acid-introducing ability, luciferase-expressing plasmid (procedure of Example 9); assay type: cell-based
Source text: A cell line established from monkey kidney (Vero cell) and a human bladder cancer cell (T24 cell) purchased from American Type Culture Collection (ATCC) and human lung cancer cell (A549 cell) purchased from Dainippon Pharmaceutical were inoculated on a 24 well culture plate (manufactured by NALGEN NUNC) at 1×10^5 cells/well. Vero cell and A549 cell were cultivated in DMEM (manufactured by Life Technologies Oriental) supplemented with 10% fetal bovine serum (hereinafter referred to as FBS, manufactured by NICHIREI), and T24 cell was cultivated in McCoy's 5a (manufactured by Life Technologies Oriental) supplemented with 10% FBS in 5% CO2 atmosphere at 37° C. for 24 hours. After removing the medium, opti-MEM (manufactured by Life Technologies Oriental) prepared to have the concentration of the luciferase-expressing plasmid prepared in Example 7 of 1 μg/mL and the concentration of the peptide prepared in Example 1 of 1.25, 2.5, or 5 μM was added, and the cells were cultivated for 5 hours. Next, in the case of Vero cell and A549 cell, the culture medium was replaced with DMEM supplemented with 10% FBS, and in the case of T24 cell, the medium was replaced with McCoy's 5a supplemented with 10% FBS, and cultivation was continued in 5% CO2 atmosphere and at 37° C. for another 24 hours. The luciferase activity expressed in the cell was then measured by the method instructed in luciferase assay system (manufactured by Promega). To be more specific, the cells were washed with phosphate-buffered saline (hereinafter referred to as PBS, manufactured by SIGMA), and the cells were lyzed with Passive Lysis Buffer attached to the kit.
20 μL of this cell lysate and 100 μL of the Luciferase Assay Reagent II attached to the kit was added to a fluorescence-measuring plate (Microlite™ 1 plate, manufactured by Dynatech), and after mixing, fluorescence was measured for 1 second by using a multilabel counter (ARVO™ SY1420 MULTILABEL COUNTER, manufactured by Wallac Beltold.
Concentration of the protein in the cell lysate was measured by mixing 8 μL of the cell lysate and 200 μL of the protein assay solution (manufactured by Biorad) with 792 μL of ultrapure water in a disposable cuvette (UV fluorescent cuvette A204X, manufactured by Funakoshi), allowing the mixture to stand for 5 minutes at room temperature, and measuring the absorption at 595 nm with a spectrophotometer (DU640, manufactured by Beckman). Bovine serum albumin (BSA) was used for the standard protein. By using the thus obtained results, count per 1 second per 1 mg of protein of the cell lysate was calculated to thereby use the count as the luciferase activity, and the highest count in the three conditions of different peptide concentration was designated the gene-introducing ability of the peptide.

[3] = Measurement of CD spectrum with and without SDS; assay type: physicochemical; settings: 10 mM phosphate buffer pH 7, 50 mM NaCl, 35° C.; for α-helix structure in CD spectroscopy in the presence of SDS: 5 mM SDS
Experimental: The peptide dissolved in 10 mM phosphate buffer (pH=7) containing 50 mM NaCl was evaluated for its CD spectrum in the presence and in the absence of 5 mM SDS by using a circular dichroism spectrophotometer (J-500A, manufactured by JASCO). The cell length was 1 mm. The measurement was conducted at 35° C. for 6 times in total.

[4] = Toxicity of the peptide, tail vein administration; assay type: in vivo; settings: female BALB/c mouse, 5 mg/kg
Experimental: The peptide used in the present invention was administered to a mouse from its tail vein to thereby evaluate its toxicity. The mouse used was a female BALB/c mouse of 5 week old, and the peptide was used at a dose of 5 mg/kg.

Vero cell = assay: Storage stability of the complex with nucleic acid (gene-introducing activity after 4° C., 1 week); assay type: cell-based, monkey; settings: complex with luciferase plasmid stored at 4° C. for 1 week
Experimental: Luciferase-expressing plasmid was introduced in Vero cell in accordance with the procedure described in Example 9 by using the opti-MEM prepared to have a concentration of the luciferase-expressing plasmid prepared in Example 7 of 2 μg/mL and a concentration of the peptide of SEQ ID NO: 4 prepared in Example 1 of 5 μM to thereby measure the luciferase activity. The opti-MEM containing plasmid and peptide used were the one which had been prepared immediately before the gene introduction, and the one which had been prepared 1 week (7 days) in advance and stored at 4° C.
For the purpose of reference, gene-introducing activity of Lipofectin and LipofectAMINE 2000 (manufactured by Life Technologies Oriental), which are commercially available plasmid-introducing agents, were also evaluated by mixing these reagent with luciferase-expressing plasmid in accordance with the attached protocol, and evaluating their gene-introducing activity after storing at 4° C. for 1 week.

[5] = system: Lewis lung carcinoma cell; assay: In vivo HSV-tk gene introduction plus GCV, survival of mice with Lewis lung carcinoma in abdominal cavity; design: species or system mouse; settings: GCV only, 30 mg/kg/day
Experimental: To be more specific, 1×10^5 Lewis lung carcinoma cells were transplanted in the abdominal cavity of a C57BL/6 mouse (purchased from Charles River JAPAN), and a mixture of 10 μg of the HSV-tk-expressing plasmid prepared in Example 7 and 40 nmol of the peptide of SEQ ID NO: 16 prepared in Example 1 was administered in the abdominal cavity after the cell transplantation. The mouse was also administered with GCV at a dose of 30 mg/kg/day from 1st to 8th day after the transplantation.

In the case of “SEQ ID NO: 25: same amino acid composition as SEQ ID NO: 1 but with an utterly random amino acid sequence (TIRYRPSHQIRLRAVLHLWIRYRPSHQIRLRAVLHWS) [reference compound]”, the “Binding to flow cell 2 (50% phosphatidyl serine, 50% phosphatidyl choline) and flow cell 1 (phosphatidyl choline)” value [1] was “showed no binding”, the “Ability of introducing the nucleic acid into a cell” value ([2]; procedure of Example 9) was “neither the nucleic acid-introducing ability” and the “α-helix structure in CD spectroscopy in the presence of SDS” value [3] was “no α-helix structure is found even in the presence of SDS”.

With “LARLLARLLARLLRALLRALLRAL [SEQ ID NO: 27]” the “Toxicity after tail vein administration” value [4] was “died immediately after the administration”.

With “SEQ ID NO: 4: SEQ ID NO: 1 with one or two locations in the 18 amino acid sequence substituted (TRYLRIHPRSWLHQIALRLRYLRIHPRSWLHQIALRS)” the Nucleic acid-introducing ability ([2]; luciferase plasmid 1 μg/mL, highest count of peptide 1.25, 2.5 or 5 μM, cell line not stated) was 4+ (10,000,000 to less than 100,000,000), the “Gene-introducing activity after storage relative to freshly prepared complex” value (Vero cell) was “substantially equivalent” and the “α-helix structure in CD spectroscopy in the presence of SDS” value [3] was “are in α-helix structure in the presence of SDS”. For the same compound, the “α-helix structure in CD spectroscopy in the absence of SDS” value ([3]; no SDS) was “do not take α-helix structure in an aqueous solution solely containing an inorganic salt”.

`Nc1nc(O)c2ncn(COC(CO)CO)c2n1` [GCV, ganciclovir] gave an Average survival period [5] of 14 days.
